Experimental data published in patent publication US9304125B2, “Devices and methods for observing the cell division” (CENTRE NATIONAL DE LA RECHERCHE SCIENTIFIQUE, priority 2009, dated 2016).
“Also recorded” adds a separate entry of the source.

Tested on: cytokinetic ring
Experiment: Cytokinetic ring closure of fission yeast in egg-cup wells, observed by fluorescence microscopy (rlc1-mCherry)
Format: cell-based, Schizosaccharomyces pombe
Conditions: latrunculin A 2 μM; FIG. 5B
Description: Here, they illustrate results with the myosin light chain encoded by rcl1 gene fused to mCherry.
The inventors incubated the cells with latrunculin A (2 μM), a drug known to bind monomeric actin and therefore preventing its polymerisation (Ayscough, 1998).
Standard methods were used for cell growth (Moreno et al., 1991). Briefly, cells were growing exponentially in EMM4S (Moreno et al., 1991), and experiments were conducted using the same medium in the chamber.
S. pombe strains successfully used in this study were the following: • JM 207 h+ rlc1 mcherry::natR ura- leu- ade-, J. Moseley • JW 1110 h+ kanMX6-Pmyo2-mYFP-myo2 ade6-M210 leu1-32 ura4-D18, J.-Q. Wu (Wu and Pollard, 2005) • PPG 5054, h+ leu1-32 ura4-D18 pax::KanMX6 leu1+::GFPpax+, Pilar Perez Lab (Pinar et al., 2008). • JW 977 h+ cdc15-mYFP-kanMX6 ade6-M210 leu1-32 ura4-D18, J.-Q. Wu (Wu and Pollard, 2005) • 519 h− bgs1Δ::ura4^+ Pbgs1^+::GFP-bgs1^+:leu1^+ leu1-32 ura4-Δ18 his3-Δ1, Pilar Perez (Cortes et al., 2002)
Cells were grown in exponential phase at 32° C. At about 0.5 optical density, the EMM4S medium was removed twice by centrifugation at 1000 g for 2 min followed by cells resuspension in a EMM-N medium (Moreno et al., 1991): cells were nitrogen starved at 32° C. for 5 hours. Cells were then pelleted with a 2 min centrifugation at 1000 g and they were resuspended in EMM4S. The egg cup surface (face up) was carefully placed on the top of a home-made plastic holder deposited in a 50 ml tube (adapted from the set-up used by (Allen et al., 2007)); 13 ml of EMM4S was poured in the tube. Cells were exposed to sonication 30 s (Branson 200, Ultrasonic Cleaner) to separate aggregated cells, and 1 ml of cell suspension was added to the 50 ml tube. Cells were then centrifuged at 500 g for 2 mn on the egg-cup surface resting on the special plastic holder. The egg cup surface was carefully removed from the holder and it was inserted in a home-made chamber (see FIG. 2D). The sample preparation was achieved by screwing a top metal piece onto the surface holder. […]

For `C/C1=C/C(=O)O[C@@H]2C[C@@H](CC[C@H](C)/C=C\C=C\CC1)O[C@@](O)([C@@H]1CSC(=O)N1)C2` [latrunculin A], the “closure of the cytokinetic ring” value was “the closure was stopped” and the cytokinetic ring integrity was “the ring disassembled, and this led to the clustering of myosin into discrete patches; also recorded: disrupts the ring”.
